Values belong to the molecule of their own block, whether it stands above or below them.
Key:
Parameters in all cases: scale not given: the % may be the effect or the level left
[1] = biological target: T1, Hepatic sodium/bile acid cotransporter (Homo sapiens, UniProt Q14973); test: TP_TRANSPORTER: inhibition of Taurocholate uptake (Taurochorate: 10 uM, Glycholithocholate: 100 uM) in Xenopus laevis oocytes; assay type: functional, cell-based, Oocyte; conditions: probe taurocholate (10 uM), read-out: Activity
T1 sequence (Q14973 whole entry): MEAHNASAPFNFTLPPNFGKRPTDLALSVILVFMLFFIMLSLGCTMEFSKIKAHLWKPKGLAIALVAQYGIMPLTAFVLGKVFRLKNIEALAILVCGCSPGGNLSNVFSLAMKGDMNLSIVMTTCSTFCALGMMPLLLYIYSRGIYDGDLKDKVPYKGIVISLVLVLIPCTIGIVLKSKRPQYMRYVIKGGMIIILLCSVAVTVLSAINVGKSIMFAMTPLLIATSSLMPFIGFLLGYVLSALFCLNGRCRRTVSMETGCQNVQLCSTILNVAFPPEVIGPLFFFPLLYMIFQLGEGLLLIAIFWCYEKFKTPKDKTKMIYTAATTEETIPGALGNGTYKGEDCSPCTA

[2] = biological target: T1, Hepatic sodium/bile acid cotransporter; test: TP_TRANSPORTER: inhibition of Taurocholate uptake (Taurochorate: 10 uM, TCDC: 100 uM) in Xenopus laevis oocytes; assay type: functional, cell-based; conditions: oocyte
[3] = biological target: T1, Hepatic sodium/bile acid cotransporter; test: TP_TRANSPORTER: inhibition of Taurocholate uptake (Taurochorate: 10 uM, Lithocholate: 100 uM) in Xenopus laevis oocytes; assay type: functional, cell-based, Oocyte; conditions: probe taurocholate (10 uM), read-out: Activity
[4] = biological target: T1, Hepatic sodium/bile acid cotransporter; test: TP_TRANSPORTER: inhibition of Taurocholate uptake (Taurochorate: 10 uM, Bumetanide: 500 uM) in Xenopus laevis oocytes; assay type: functional, cell-based; conditions: oocyte
[5] = biological target: T1, Hepatic sodium/bile acid cotransporter; test: TP_TRANSPORTER: inhibition of Taurocholate uptake (Taurochorate: 10 uM, Taurolithocholate: 100 uM) in Xenopus laevis oocytes; assay type: functional, cell-based, Oocyte; conditions: probe taurocholate (10 uM), read-out: Activity
[6] = biological target: T1, Hepatic sodium/bile acid cotransporter; test: TP_TRANSPORTER: inhibition of Taurocholate uptake (Taurochorate: 10 uM, UDCA: 100 uM) in Xenopus laevis oocytes; assay type: functional, cell-based, Oocyte; conditions: probe taurocholate (10 uM), read-out: Activity
[7] = biological target: T1, Hepatic sodium/bile acid cotransporter; test: TP_TRANSPORTER: inhibition of Taurocholate uptake (Taurochorate: 10 uM, GCDCA: 100 uM) in Xenopus laevis oocytes; assay type: functional, cell-based, Oocyte; conditions: probe taurocholate (10 uM), read-out: Activity
[8] = biological target: T1, Hepatic sodium/bile acid cotransporter; test: TP_TRANSPORTER: inhibition of Taurocholate uptake (Taurochorate: 10 uM, CDCA: 100 uM) in Xenopus laevis oocytes; assay type: functional, cell-based; conditions: oocyte
[9] = biological target: T1, Hepatic sodium/bile acid cotransporter; test: TP_TRANSPORTER: inhibition of Taurocholate uptake (Taurochorate: 10 uM, BSP: 100 uM) in Xenopus laevis oocytes; assay type: functional, cell-based, Oocyte; conditions: probe taurocholate (10 uM), read-out: Activity
[10] = biological target: T1, Hepatic sodium/bile acid cotransporter; test: TP_TRANSPORTER: inhibition of Taurocholate uptake (Taurochorate: 10 uM, TDCA: 100 uM) in Xenopus laevis oocytes; assay type: functional, cell-based; conditions: oocyte
[11] = biological target: T1, Hepatic sodium/bile acid cotransporter; test: TP_TRANSPORTER: inhibition of Taurocholate uptake (Taurochorate: 10 uM, TUDC: 100 uM) in Xenopus laevis oocytes; assay type: functional, cell-based; conditions: oocyte
[12] = biological target: T1, Hepatic sodium/bile acid cotransporter; test: TP_TRANSPORTER: inhibition of Taurocholate uptake (Taurochorate: 10 uM, GC: 100 uM) in Xenopus laevis oocytes; assay type: functional, cell-based; conditions: oocyte

SMILES: C[C@H](CCC(=O)NCC(=O)O)[C@H]1CC[C@H]2[C@@H]3CC[C@@H]4C[C@H](O)CC[C@]4(C)[C@H]3CC[C@]12C [LITHOGLYCOCHOLATE]
activity at 100 µM [1]: 24%

SMILES: C[C@H](CCC(=O)O)[C@H]1CC[C@H]2[C@@H]3CC[C@@H]4C[C@H](O)CC[C@]4(C)[C@H]3CC[C@]12C [LITHOCHOLIC ACID]
activity at 100 µM [3]: 63%

SMILES: C[C@H](CCC(=O)O)[C@H]1CC[C@H]2[C@@H]3[C@@H](O)C[C@@H]4C[C@H](O)CC[C@]4(C)[C@H]3CC[C@]12C [URSODIOL]
activity at 100 µM [6]: 45%

SMILES: C[C@H](CCC(=O)NCC(=O)O)[C@H]1CC[C@H]2[C@@H]3[C@H](O)C[C@@H]4C[C@H](O)CC[C@]4(C)[C@H]3CC[C@]12C [GLYCOCHENODEOXYCHOLATE]
activity at 100 µM [7]: 14%

SMILES: C[C@H](CCC(=O)O)[C@H]1CC[C@H]2[C@@H]3[C@H](O)C[C@@H]4C[C@H](O)CC[C@]4(C)[C@H]3CC[C@]12C [CHENODIOL]
Activity [8]: 13%

SMILES: O=C1OC(c2ccc(O)c(S(=O)(=O)O)c2)(c2ccc(O)c(S(=O)(=O)O)c2)c2c(Br)c(Br)c(Br)c(Br)c21 [SULFOBROMOPHTHALEIN SODIUM]
activity at 100 µM [9]: 41%

Results, then the molecule that gave them:

Activity [2]: 19%
SMILES: C[C@H](CCC(=O)NCCS(=O)(=O)O)[C@H]1CC[C@H]2[C@@H]3[C@H](O)C[C@@H]4C[C@H](O)CC[C@]4(C)[C@H]3CC[C@]12C [TAUROCHENODEOXYCHOLATE]

Activity [4]: 71%
SMILES: CCCCNc1cc(C(=O)O)cc(S(N)(=O)=O)c1Oc1ccccc1 [BUMETANIDE]

activity at 100 µM [5]: 33%
SMILES: C[C@H](CCC(=O)NCCS(=O)(=O)O)[C@H]1CC[C@H]2[C@@H]3CC[C@@H]4C[C@H](O)CC[C@]4(C)[C@H]3CC[C@]12C [TAUROLITHOCHOLIC ACID]

Activity [10]: 10%
SMILES: C[C@H](CCC(=O)NCCS(=O)(=O)O)[C@H]1CC[C@H]2[C@@H]3CC[C@@H]4C[C@H](O)CC[C@]4(C)[C@H]3C[C@H](O)[C@]12C [TAURODEOXYCHOLIC ACID]

Activity [11]: 8%
SMILES: C[C@H](CCC(=O)NCCS(=O)(=O)O)[C@H]1CC[C@H]2[C@@H]3[C@@H](O)C[C@@H]4C[C@H](O)CC[C@]4(C)[C@H]3CC[C@]12C [TAURURSODIOL]

Activity [12]: 44%
SMILES: C[C@H](CCC(=O)NCC(=O)O)[C@H]1CC[C@H]2[C@@H]3[C@H](O)C[C@@H]4C[C@H](O)CC[C@]4(C)[C@H]3C[C@H](O)[C@]12C [GLYCOCHOLIC ACID]

From ChEMBL document CHEMBL2074440, “Molecular cloning, chromosomal localization, and functional characterization of a human liver Na+/bile acid cotransporter” (J Clin Invest, 1994)
